{"source": "patent US9611502B2", "about": "“Method for simultaneously measuring activity of various enzymes by using multi-wavelength absorption single channel” (Chongqing Medical University, priority 2012, dated 2017)", "key": {"[1]": {"target": "T1, lactic acid dehydrogenase (LDH) (Oryctolagus cuniculus, UniProt P13491)", "T1 construct": "purchased Shanghai Shangon NB0642", "experiment": "LDH kinetics and competitive inhibition by 4-nitroaniline (simultaneous GGT/LDH assay)", "type": "biochemical, rabbit"}, "[2]": {"target": "T2, calf intestinal alkaline phosphatase (CIAP) (Bos taurus, UniProt P19111)", "T2 sequence (P19111 20-506)": "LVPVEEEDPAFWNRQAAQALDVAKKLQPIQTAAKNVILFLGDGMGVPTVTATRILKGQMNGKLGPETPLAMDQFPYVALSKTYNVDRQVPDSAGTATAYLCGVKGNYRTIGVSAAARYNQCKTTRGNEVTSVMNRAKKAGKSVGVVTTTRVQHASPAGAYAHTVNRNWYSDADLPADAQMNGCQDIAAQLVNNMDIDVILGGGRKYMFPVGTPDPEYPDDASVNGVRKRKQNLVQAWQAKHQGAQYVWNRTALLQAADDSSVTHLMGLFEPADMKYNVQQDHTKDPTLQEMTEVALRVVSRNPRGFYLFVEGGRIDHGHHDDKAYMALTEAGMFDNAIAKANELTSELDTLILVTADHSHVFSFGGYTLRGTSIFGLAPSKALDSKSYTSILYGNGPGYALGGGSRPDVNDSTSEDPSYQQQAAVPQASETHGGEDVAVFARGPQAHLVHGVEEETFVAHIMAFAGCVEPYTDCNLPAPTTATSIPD"}, "[3]": {"system": "γ-glutamyltransferase (GGT)", "conditions": "preset for data processing; cited from earlier work"}, "[4]": {"experiment": "Specific activity of penicillin G-labeled β-D-galactosidase after labeling", "type": "biochemical", "conditions": "50 mmol/L Tris-HCl pH 7.5", "experimental": "b) mixing 50 ul solution of the activated penicillin G with 0.50 ml of 0.44 mg β-D-galactosidase dissolved in the sodium phosphate buffer at pH 7.4, keeping the mixture at 4° C. for reaction for 120 min; the resulting mixture of the labeled β-D-galactosidase is passed through Sephadex G25 column (15 cm height and 10 mm inner diameter with a packed volume of 10 ml, equilibrated with 50 mmol/L Tris-HCl at pH 7.5) and the column is eluted with the same Tris-HCl buffer to monitor the absorbance at 280 nm; the first peak of the elution is the labeled β-D-galactosidase, with a total of 0.22 mg protein in 2.0 ml elution solution;\nc) determining the specific activity after labeling: in 50 mmol/L Tris-HCl at pH 7.5, the specific activity of the labeled β-D-galactosidase is about 30 μmol·(L·min·mg)^−1 on 4-nitrophenyl-β-D-galactoside, indicating the reservation of nearly 100% activity; meanwhile, the specific activity on 4-nitro-1-napthyl-β-D-galactoside in the same buffer, its specific activity is about 100 (L·min·mg)^−1, but just about 70% of that before modification;"}, "[5]": {"target": "T2, calf intestinal alkaline phosphatase (CIAP)", "parameters": "purchased Sigma P0114", "conditions": "Blake et al 1982 method; cited from earlier work"}}}
{"compound": "Nc1ccc([N+](=O)[O-])cc1", "note": "[4-nitroaniline]", "values": [{"measurement": "Ki", "setting": "[1]", "value": 24, "unit": "µM"}]}
{"compound": "O=[N+]([O-])c1ccc(OP(=O)(O)O)c2ccccc12", "note": "[4NNPP, 4-nitronaphthylphosphate]", "values": [{"measurement": "specific activity of CIAP relative to that on 4-nitrophenylphosphate", "setting": "[2]", "value": "about 40%"}, {"measurement": "Michaelis constant of CIAP", "setting": "[2]; 4NNPP as chromogenic substrate", "value": "about 10 μmol/L"}]}
{"compound": "NC(=O)C1=CN([C@@H]2O[C@H](COP(=O)(O)OP(=O)(O)OC[C@H]3O[C@@H](n4cnc5c(N)ncnc54)[C@H](O)[C@@H]3O)[C@@H](O)[C@H]2O)C=CC1", "note": "[NADH, reduced form of nicotine adenine nucleotide]", "values": [{"measurement": "Michaelis constant of LDH for NADH", "setting": "[1]; pyruvate 3.0 mmol/L, pH 7.0", "value": 0.040, "unit": "mmol/L"}]}
{"compound": "N[C@@H](CCC(=O)Nc1ccc([N+](=O)[O-])cc1)C(=O)O", "note": "[γ-glutamyl-(4-nitro)-aniline]", "values": [{"measurement": "Michaelis constant of GGT for substrate (preset)", "setting": "[3]", "value": 1.00, "unit": "mmol/L"}]}
{"compound": "labeled β-D-galactosidase: β-D-galactosidase (Sigma G4155) modified with activated penicillin G", "values": [{"measurement": "reservation of activity after labeling (4-nitrophenyl-β-D-galactoside)", "setting": "[4]", "value": "about 100%"}, {"measurement": "specific activity on 4-nitro-1-napthyl-β-D-galactoside", "setting": "[4]", "value": "about 100 (L·min·mg)^−1"}, {"measurement": "specific activity on 4-nitro-1-napthyl-β-D-galactoside relative to that before modification", "setting": "[4]", "value": "about 70%"}, {"measurement": "specific activity on 4-nitrophenyl-β-D-galactoside", "setting": "[4]", "value": "about 30 μmol·(L·min·mg)^−1"}]}
{"compound": "phenolphthalein monophosphate", "values": [{"measurement": "specific activity of CIAP relative to that on p-nitrophenylphosphate", "setting": "[5]", "value": "about 7%"}]}
